# Key:
# MOLT-4 = conditions: for Log10LC50 / Log10TGI50: MOLT-4 (Leukemia); for Log10LC50: LC50: PG=−50; for Log10TGI50: TGI: PG=0
# In short: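 Sulforhodamine B staining of TCA-fixed cellular protein was the read-out, following 48 h compound exposure at 37 °C. Plates were pre-incubated 24 h before dosing, and five concentrations (routinely 10^−4 to 10^−8 molar) were tested in duplicate with time-zero and untreated controls. Values derive from test/control percentage growth relative to time-zero mass.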
# SNB-75 = test: NCI 60 cell line panel screen (SRB); type: cell-based, human; conditions: for Log10LC50 / Log10TGI50: SNB-75 (CNS Cancer); for Log10LC50: LC50: PG=−50; for Log10TGI50: TGI: PG=0
# PC-3 = test: NCI 60 cell line panel screen (SRB); type: cell-based, human; conditions: for Log10LC50 / Log10TGI50: PC-3 (Prostate Cancer); for Log10LC50: LC50: PG=−50; for Log10TGI50: TGI: PG=0; for Log10GI50: Prostate Cancer, PC-3
# SK-MEL-2 = test: NCI 60 cell line panel screen (SRB); type: cell-based, human; conditions: for Log10LC50: SK-MEL2 (Melanoma), LC50: PG=−50; for Log10TGI50: SK-MEL-2 (Melanoma), TGI: PG=0
# OVCAR-8 = test: NCI 60 cell line panel screen (SRB); type: cell-based, human; conditions: for Log10LC50 / Log10TGI50: OVCAR-8 (Ovarian Cancer); for Log10LC50: LC50: PG=−50; for Log10TGI50: TGI: PG=0; for Log10GI50: Ovarian Cancer, OVCAR-8
# BT-549 = test: NCI 60 cell line panel screen (SRB); type: cell-based, human; conditions: for Log10LC50 / Log10TGI50: BT-549 (Breast Cancer); for Log10LC50: LC50: PG=−50; for Log10TGI50: TGI: PG=0; for Log10GI50: Breast Cancer, BT-549
# SK-MEL-28 = test: NCI 60 cell line panel screen (SRB); type: cell-based, human; conditions: for Log10GI50: Melanoma, SK-MEL-28; for Log10LC50 / Log10TGI50: SK-MEL-28 (Melanoma); for Log10LC50: LC50: PG=−50; for Log10TGI50: TGI: PG=0
# MDA-MB231/ATCC = test: NCI 60 cell line panel screen (SRB); type: cell-based, human; conditions: for Log10GI50: Breast Cancer, MDA-MB231/ATCC; for Log10LC50 / Log10TGI50: MDA-MB231/ATCC (Breast Cancer); for Log10LC50: LC50: PG=−50; for Log10TGI50: TGI: PG=0
# K-562 = test: NCI 60 cell line panel screen (SRB); type: cell-based, human; conditions: for Log10LC50 / Log10TGI50: K-562 (Leukemia); for Log10LC50: LC50: PG=−50; for Log10TGI50: TGI: PG=0; for Log10GI50: Leukemia, K-562
# RPMI-8226 = test: NCI 60 cell line panel screen (SRB); type: cell-based, human; conditions: for Log10GI50: Leukemia, RPMI-8226; for Log10LC50 / Log10TGI50: RPMI-8226 (Leukemia); for Log10LC50: LC50: PG=−50; for Log10TGI50: TGI: PG=0
# CCRF-CEM = test: NCI 60 cell line panel screen (SRB); type: cell-based, human; conditions: for Log10LC50 / Log10TGI50: CCRF-CEM (Leukemia); for Log10LC50: LC50: PG=−50; for Log10TGI50: TGI: PG=0; for Log10GI50: Leukemia, CCRF-CEM
# RXF 393 = test: NCI 60 cell line panel screen (SRB); type: cell-based, human; conditions: for Log10LC50 / Log10TGI50: RXF 393 (Renal Cancer); for Log10LC50: LC50: PG=−50; for Log10TGI50: TGI: PG=0; for Log10GI50: Renal Cancer, RXF 393
# NCI-H23 = test: NCI 60 cell line panel screen (SRB); type: cell-based, human; conditions: for Log10LC50 / Log10TGI50: NCI-H23 (Non-Small Cell Lung Cancer); for Log10LC50: LC50: PG=−50; for Log10TGI50: TGI: PG=0; for Log10GI50: Non-Small Cell Lung Cancer, NCI-H23
# HOP-62 = test: NCI 60 cell line panel screen (SRB); type: cell-based, human; conditions: for Log10LC50 / Log10TGI50: HOP-62 (Non-Small Cell Lung Cancer); for Log10LC50: LC50: PG=−50; for Log10TGI50: TGI: PG=0; for Log10GI50: Non-Small Cell Lung Cancer, HOP-62
# UACC-257 = test: NCI 60 cell line panel screen (SRB); type: cell-based, human; conditions: for Log10LC50 / Log10TGI50: UACC-257 (Melanoma); for Log10LC50: LC50: PG=−50; for Log10TGI50: TGI: PG=0
# CAKI-1 = test: NCI 60 cell line panel screen (SRB); type: cell-based, human; conditions: for Log10LC50 / Log10TGI50: CAKI-1 (Renal Cancer); for Log10LC50: LC50: PG=−50; for Log10TGI50: TGI: PG=0; for Log10GI50: Renal Cancer, CAKI-1
# MDA-MB-435 = test: NCI 60 cell line panel screen (SRB); type: cell-based, human; conditions: for Log10LC50 / Log10TGI50: MDA-MB-435 (Breast Cancer); for Log10LC50: LC50: PG=−50; for Log10TGI50: TGI: PG=0
smiles,measurement,setting,value
"CC1CCC2C(C)C(CC(COC(=O)CCC(=O)O)CC3OC4OC5(C)CCC6C(C)CCC(C3C)C46OO5)OC3OC4(C)CCC1C32OO4 (centres unmarked) [Compound 8a, bis-trioxane primary succinate monoester]",concentration for cytotoxicity (percentage growth −50),MOLT-4,greater than 10^−4 M
same,Log10GI50,"MOLT-4; Leukemia, MOLT-4",−8.18
same,Log10LC50,MOLT-4,>−4.30 log10M
same,Log10TGI50,MOLT-4,>−4.30 log10M
same,Log10GI50,"SNB-75; CNS Cancer, SNB-75",−6.47
same,Log10LC50,SNB-75,>−4.30 log10M
same,Log10TGI50,SNB-75,>−4.30 log10M
same,Log10LC50,PC-3,>−4.30 log10M
same,Log10TGI50,PC-3,>−4.30 log10M
same,Log10GI50,PC-3,<−8.30
same,Log10GI50,"SK-MEL-2; Melanoma, SK-MEL-2",−5.12
same,Log10LC50,SK-MEL-2,>−4.30 log10M
same,Log10TGI50,SK-MEL-2,>−4.30 log10M
same,Log10LC50,OVCAR-8,>−4.30 log10M
same,Log10TGI50,OVCAR-8,>−4.30 log10M
same,Log10GI50,OVCAR-8,>−4.30
same,Log10LC50,BT-549,>−4.30 log10M
same,Log10TGI50,BT-549,−7.39 log10M
same,Log10GI50,BT-549,−7.91
same,Log10GI50,SK-MEL-28,−6.09
same,Log10LC50,SK-MEL-28,>−4.30 log10M
same,Log10TGI50,SK-MEL-28,>−4.30 log10M
same,Log10GI50,MDA-MB231/ATCC,−7.19
same,Log10LC50,MDA-MB231/ATCC,>−4.30 log10M
same,Log10TGI50,MDA-MB231/ATCC,−6.35 log10M
same,Log10LC50,K-562,>−4.30 log10M
same,Log10TGI50,K-562,>−4.30 log10M
same,Log10GI50,K-562,<−8.30
same,Log10GI50,RPMI-8226,<−8.30
same,Log10LC50,RPMI-8226,>−4.30 log10M
same,Log10TGI50,RPMI-8226,−6.19 log10M
same,Log10LC50,CCRF-CEM,>−4.30 log10M
same,Log10TGI50,CCRF-CEM,>−4.30 log10M
same,Log10GI50,CCRF-CEM,<−8.30
same,Log10LC50,RXF 393,>−4.30 log10M
same,Log10TGI50,RXF 393,−6.77 log10M
same,Log10GI50,RXF 393,<−8.30
same,Log10LC50,NCI-H23,>−4.30 log10M
same,Log10TGI50,NCI-H23,>−4.30 log10M
same,Log10GI50,NCI-H23,<−8.30
same,Log10LC50,HOP-62,>−4.30 log10M
same,Log10TGI50,HOP-62,>−4.30 log10M
same,Log10GI50,HOP-62,−6.34
same,Log10GI50,"UACC-257; Melanoma, UACC-257",−5.02
same,Log10LC50,UACC-257,>−4.30 log10M
same,Log10TGI50,UACC-257,>−4.30 log10M
same,Log10LC50,CAKI-1,>−4.30 log10M
same,Log10TGI50,CAKI-1,>−5.99 log10M
same,Log10GI50,CAKI-1,−6.84
same,Log10LC50,MDA-MB-435,>−4.30 log10M
same,Log10TGI50,MDA-MB-435,>−4.30 log10M
"CC1CCC2C(C)C(CC(O)(CC3OC4OC5(C)CCC6C(C)CCC(C3C)C46OO5)CS(=O)(=O)c3ccc(C(=O)O)cc3)OC3OC4(C)CCC1C32OO4 (stereo not drawn) [Compound 10c, bis-trioxane β-hydroxysulfone benzoic acid]",Log10LC50,MOLT-4,>−4.30 log10M
same,Log10TGI50,MOLT-4,>−4.30 log10M
same,Log10LC50,SNB-75,−4.32 log10M
same,Log10TGI50,SNB-75,−4.80 log10M
same,Log10LC50,PC-3,−4.62 log10M
same,Log10TGI50,PC-3,−5.23 log10M
same,Log10GI50,PC-3,<−8.30
same,Log10LC50,SK-MEL-2,>−4.30 log10M
same,Log10TGI50,SK-MEL-2,>−4.30 log10M
same,Log10LC50,OVCAR-8,>−4.30 log10M
same,Log10TGI50,OVCAR-8,−4.48 log10M
same,Log10GI50,OVCAR-8,−5.25
same,Log10LC50,BT-549,−4.61 log10M
same,Log10TGI50,BT-549,−5.54 log10M
same,Log10GI50,BT-549,−6.67
same,Log10GI50,SK-MEL-28,−5.45
same,Log10LC50,SK-MEL-28,>−4.30 log10M
same,Log10TGI50,SK-MEL-28,−4.63 log10M
same,Log10GI50,MDA-MB231/ATCC,<−8.30
same,Log10LC50,MDA-MB231/ATCC,−5.02 log10M
same,Log10TGI50,MDA-MB231/ATCC,<−8.30 log10M
same,Log10LC50,K-562,>−4.30 log10M
same,Log10TGI50,K-562,−4.75 log10M
same,Log10GI50,K-562,<−8.30
same,Log10GI50,RPMI-8226,<−8.30
same,Log10LC50,RPMI-8226,>−4.30 log10M
same,Log10TGI50,RPMI-8226,−5.03 log10M
same,Log10LC50,CCRF-CEM,>−4.30 log10M
same,Log10TGI50,CCRF-CEM,−4.84 log10M
same,Log10GI50,CCRF-CEM,<−8.30
same,Log10LC50,RXF 393,−4.73 log10M
same,Log10TGI50,RXF 393,−5.99 log10M
same,Log10GI50,RXF 393,<−8.30
same,Log10LC50,NCI-H23,−4.77 log10M
same,Log10TGI50,NCI-H23,−5.25 log10M
same,Log10GI50,NCI-H23,<−8.30
same,Log10LC50,HOP-62,−4.62 log10M
same,Log10TGI50,HOP-62,−5.01 log10M
same,Log10GI50,HOP-62,<−8.30
same,Log10LC50,UACC-257,>−4.30 log10M
same,Log10TGI50,UACC-257,−4.38 log10M
same,Log10LC50,CAKI-1,−4.93 log10M
same,Log10TGI50,CAKI-1,−6.71 log10M
same,Log10GI50,CAKI-1,<−8.30
same,Log10GI50,"MDA-MB-435; Breast Cancer, MDA-MB-435",<−8.30
same,Log10LC50,MDA-MB-435,−4.60 log10M
same,Log10TGI50,MDA-MB-435,−5.17 log10M

# From patent US7417156B2, “Orally active, antimalarial, anticancer, artemisinin-derived trioxane dimers” (Johns Hopkins University, priority 2002, dated 2008)
